Experimental data from patent US20260306500A1, “METHOD OF INHIBITING ADENOSINE TRIPHOSPHATE SECRETION, METHOD OF INHIBITING HEPATIC STELLATE CELL ACTIVATION, METHOD OF DEACTIVATING HEPATIC STELLATE CELL, METHOD OF TREATING HEPATIC FIBROSIS, METHOD OF TREATING NON-ALCOHOLIC STEATOHEPATITIS, AND METHOD OF TREATING PSORIASIS” (Kurume University, priority 2023, published 2026).

How the values were obtained:
V-ATPase [1] = target: T1, V-ATPase (Bos taurus, UniProt P31404+P31408); experiment: ATP-dependent proton transport by V-ATPase (acridine orange fluorescence quenching); type: biochemical, cattle; conditions: role: substrate; addition of ATP, relative to before addition, N=2
T1 construct: Chromaffin granule membranes were prepared from adrenal glands collected from slaughtered cattle; from tissue; host or cells: cattle adrenal glands, chromaffin granule membranes (sucrose density gradient)
T1 sequence (P31404 whole entry, looked up): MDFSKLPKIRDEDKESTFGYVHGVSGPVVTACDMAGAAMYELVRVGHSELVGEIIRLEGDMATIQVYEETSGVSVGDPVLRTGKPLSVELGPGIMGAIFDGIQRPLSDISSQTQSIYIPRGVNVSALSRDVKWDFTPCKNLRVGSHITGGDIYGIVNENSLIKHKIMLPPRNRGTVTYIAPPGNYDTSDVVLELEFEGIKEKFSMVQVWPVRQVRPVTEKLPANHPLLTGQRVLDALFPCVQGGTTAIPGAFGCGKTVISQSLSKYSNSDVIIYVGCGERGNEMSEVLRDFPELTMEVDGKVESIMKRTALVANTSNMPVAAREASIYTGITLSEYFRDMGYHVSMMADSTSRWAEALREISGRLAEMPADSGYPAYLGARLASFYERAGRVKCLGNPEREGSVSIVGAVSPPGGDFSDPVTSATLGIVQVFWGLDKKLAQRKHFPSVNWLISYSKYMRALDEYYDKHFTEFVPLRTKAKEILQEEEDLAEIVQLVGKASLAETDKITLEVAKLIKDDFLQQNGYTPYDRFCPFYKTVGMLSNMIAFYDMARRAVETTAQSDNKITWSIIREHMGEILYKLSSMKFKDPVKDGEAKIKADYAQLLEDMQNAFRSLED
T1 sequence (P31408 whole entry, looked up): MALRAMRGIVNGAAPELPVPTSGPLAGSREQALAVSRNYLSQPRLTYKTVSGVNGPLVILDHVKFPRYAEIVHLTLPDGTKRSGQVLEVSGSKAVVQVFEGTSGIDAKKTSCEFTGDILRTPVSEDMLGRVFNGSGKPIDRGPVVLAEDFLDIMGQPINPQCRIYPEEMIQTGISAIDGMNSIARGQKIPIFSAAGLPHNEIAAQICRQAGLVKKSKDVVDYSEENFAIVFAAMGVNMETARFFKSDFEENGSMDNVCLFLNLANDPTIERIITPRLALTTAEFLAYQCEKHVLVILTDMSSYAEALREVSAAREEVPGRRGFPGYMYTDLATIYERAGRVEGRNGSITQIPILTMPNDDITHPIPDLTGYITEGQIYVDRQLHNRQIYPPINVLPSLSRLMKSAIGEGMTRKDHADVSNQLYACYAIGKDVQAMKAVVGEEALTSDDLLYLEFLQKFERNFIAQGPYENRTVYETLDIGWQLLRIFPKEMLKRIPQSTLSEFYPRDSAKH
Experimental: (§1) Chromaffin granule membranes were prepared from adrenal glands collected from slaughtered cattle according to Reference A (Nathan Nelson et al., 1988, Chromaffin Granule Proton Pump, Methods in Enzymology, 157, 619-633). Chromaffin granule membranes prepared by sucrose density gradient centrifugation were suspended in 2 ml of SME buffer (20 mM MOPS-tris (pH 7.0), 0.3 M sucrose, 5 mM EDTA, 10 μg/ml leupeptin, and 10 μg/ml pepstatin)+25% glycerol, and the resulting suspension was aliquoted and stored at −80° C. Under these conditions, the ATP transport activity, the V-ATPase activity, and the catecholamine transport activity remain fully active for at least one year.
ATP-dependent proton transport by V-ATPase was measured according to Reference B. Proton transport activity was measured using a spectrofluorometer at excitation wavelength of 492 nm and a fluorescence wavelength 540 nm, wherein fluorescence quenching of acridine orange was used as an index (N=2). The transmembrane potential generated was measured using a spectrofluorometer at an excitation wavelength of 580 nm and a fluorescence wavelength of 630 nm, wherein fluorescence quenching of oxonol-V was used as an index (N=2). The acridine measurement liquid (2 ml) contained 20 mM MOPS-tris (pH 7.0), 0.2 M sucrose, 0.1 M potassium chloride, 5 mM magnesium acetate, 0.2 μg valinomycin, 2 μM acridine orange, and about 20 μg of chromaffin granules. The oxonol-V measurement liquid (2 ml) contained 20 mM MOPS-tris (pH 7.0), 0.3 M sucrose, 5 mM magnesium acetate, 5 μM oxonol-V, and about 20 μg of chromaffin granules.
(§2) Chromaffin granule membrane vesicles were prepared in the same manner as in Example 5, and uptake of radiolabeled ATP into the vesicles was measured. Transport activity of catecholamine (dopamine) and ATP-dependent proton transport by V-ATPase were also measured in the same manner as in Example 5.

V-ATPase [2] = target: T1, V-ATPase; experiment: Transmembrane potential generated (oxonol-V fluorescence quenching) in chromaffin granules; type: biochemical, cattle; conditions: role: substrate; addition of ATP, relative to before addition, N=2
Experimental: as §1
ATP-dependent proton transport by V-ATPase was measured according to Reference B. Proton transport activity was measured using a spectrofluorometer at excitation wavelength of 492 nm and a fluorescence wavelength 540 nm, wherein fluorescence quenching of acridine orange was used as an index (N=2). The transmembrane potential generated was measured using a spectrofluorometer at an excitation wavelength of 580 nm and a fluorescence wavelength of 630 nm, wherein fluorescence quenching of oxonol-V was used as an index (N=2). […]

[3] = tested on: α-SMA-positive cells (stellate cells) in mouse liver; experiment: TAA-induced activation of HSCs in mice: α-SMA immunostaining of liver sections; type: in vivo
From the text: (§3) For immunohistochemical analysis, liver samples were fixed in 4% paraformaldehyde, embedded in paraffin, and then sectioned. The sections were stained with HE or PSR. In addition, the paraffin-embedded sections were subjected to immunostaining using an α-SMA monoclonal antibody (1:500, catalog No. A5228, manufactured by Sigma-Aldrich) and an F4/80 monoclonal antibody (1:200, catalog No. MCA497GA, manufactured by AbD Serotec). The cell specimens were observed using a microscope (BZ-X700 series, manufactured by Keyence) or a confocal laser microscope (FV1000, manufactured by Olympus Corporation). The number of F4/80-positive cells was counted in four high-power fields per section. The α-SMA-positive area and the PSR-positive area were quantified using the image analysis software Fiji-ImageJ (1.54f).
In accordance with Example 15, immunostaining of α-SMA in liver sections and observation by fluorescence microscopy were performed for the normal control group, the TAA group, and the TAA+IMG group, and for a TAA+Clo group, which was treated in the same manner as the TAA+IMG group except that clodronate, instead of imeglimin, was administered at 30 mg/kg by blending it in the drinking water from 1 week after the start of TAA administration.

mouse liver = experiment: Thioacetamide-induced hepatic fibrosis in mice: histology, immunostaining and fibrosis score; type: in vivo; conditions: TAA 50 mg/kg i.p. three times per week
Experimental: Wild-type mice, […] (manufactured by Charles River Japan), were housed on a 12-hour light/dark cycle and fed a standard solid diet (5.4% fat, CRF-1, manufactured by Oriental Yeast Co., Ltd.) ad libitum. Thioacetamide (TAA, manufactured by FUJIFILM Wako Pure Chemical Corporation) was dissolved in physiological saline at 0.9% w/v. Eight-week-old mice were randomly assigned to three groups and continuously treated for 9 weeks according to the following scheme. At Week 9, all mice were euthanized 1 hour after administration of physiological saline or IMG.
Normal control group (N=6): Physiological saline was intraperitoneally administered to mice three times per week. Eight hours after each administration, a vehicle was orally administered to the mice.
TAA group (N=6): TAA (50 mg/kg, intraperitoneal) was administered to mice. Eight hours thereafter, physiological saline was orally administered to the mice. This treatment was performed three times per week for a total of 9 weeks.
TAA+IMG group (N=6): During the first week, physiological saline was orally administered to mice. Thereafter, imeglimin (IMG) at 200 mg/kg was orally administered three times per week for 8 weeks. The administration of IMG was performed 8 hours after intraperitoneal administration of TAA (50 mg/kg).
as §3
A histological score was determined by a blinded investigator using the NAFLD histological scoring system of the Nonalcoholic Steatohepatitis Clinical Research Network. The total NAFLD activity score (NAS) was calculated from the total of the individual scores for steatosis ([…]), lobular inflammation (F4/80), and hepatocyte ballooning. The range of each parameter was 0 to 2 (ballooning) or 3 (the other two scores), where 0 indicates normal and 2 or 3 indicates severe. Staging of fibrosis was based on the NASH fibrosis stages, and a fibrosis stage ranging from 0 to 4 was determined according to Reference H (David E. Kleiner et al., 2005, Design and validation of a histological scoring system for nonalcoholic fatty liver disease, Hepatology, 41, 1313-1321).
All results are expressed as the mean±standard error of the mean (S.E.M.). Statistical analyses were performed using GraphPad Prism 7.0 (GraphPad Software). Significance upon comparison between two groups was evaluated by an unpaired two-tailed Student's t-test. […]. Statistical significance among three or more groups was determined by two-way analysis of variance (ANOVA) with Tukey's or Dunnett's post hoc test. Coloc2 was used to perform image analysis, automatic thresholding, and pixel intensity correlation for statistical processing. Statistical significance was assumed when the P value was <0.05.

mouse auricle [4] = experiment: Imiquimod-induced psoriasis model, oral imeglimin (Example 18); type: in vivo; conditions: 62.5 mg of 5% imiquimod cream daily, Days 1 to 7 (disease inducer)
Experimental: Experimental psoriatic symptoms were induced in a mouse auricle by imiquimod. Six-week-old male C57BL/6 mice (N=5) were acclimated for one week. On Days 1 to 7, 62.5 mg of 5% imiquimod cream (Beselna Cream 5%) (3.125 mg in terms of the active ingredient, manufactured by Mochida Pharmaceutical Co. Ltd.) was applied to the right auricle of the mice for 7 consecutive days (IMQ group). Once daily after the imiquimod application, the imeglimin administration group (IMQ+IMG group) received oral administration, at 40 mg/kg, of 500-mg Twymeeg (trademark) tablets (manufactured by Sumitomo Pharma Co. Ltd.) dissolved in physiological saline. The control group received an equal volume of physiological saline. On Day 8, the mice were euthanized by cervical dislocation, and auricle thickness was measured using a dial thickness gauge (manufactured by Adachi Sogyo Co., Ltd.).
Each excised mouse auricle was fixed in 4% paraformaldehyde at 4° C. overnight. After ethanol substitution, the auricle was embedded in paraffin, sectioned using a rotary microtome Leica RM2165 (thickness, […]), and subjected to HE staining or immunohistochemical staining. For the immunohistochemical staining, the sections were deparaffinized, washed in xylene, and rehydrated through graded alcohols. The sections were incubated in DAKO at 95° C. for 30 minutes. The sections were blocked at room temperature for 60 minutes and then incubated at room temperature for 2 hours to allow reaction with a TGM1 anti-rabbit polyclonal antibody (catalog number 12912-3-AP, manufactured by Proteintech). The sample was washed and then allowed to react with a secondary antibody (Alexa 544-conjugated secondary antibody (goat anti-rabbit IgG) (manufactured by Molecular Probes)) at room temperature for 60 minutes. After allowing reaction with DAPI at room temperature for 10 minutes, the sections were mounted with Fluoromount and imaged using a fluorescence microscope (BZ-X710, manufactured by Keyence).

keratinocytes = experiment: Imiquimod-induced ATP secretion in keratinocytes; type: cell-based, human; conditions: imiquimod 1 μg/ml or 0.5 μg/ml, 15 minutes, N=8 (FIG. 32)
Experimental: In the same manner as in Example 1, keratinocytes were cultured at 2.5×10^4 cells/well in a 24-well plate at 37° C. in 5% CO2 for 4 days. The medium was replaced with HBSS (manufactured by Gibco) supplemented with 1 μM or 10 μM imeglimin, and incubation was performed at 37° C. in 5% CO2 for 18 hours. Thereafter, imiquimod was added thereto at 1 μg/ml or 0.5 μg/ml, and incubation was performed for 15 minutes, followed by collection of 200 μl of the supernatant. The supernatant was immediately treated on a heat block at 95° C. for 10 minutes, and ATP in the supernatant was quantified using a ATP Assay Kit—Luminescence (manufactured by Dojindo) (N=8).

mouse auricle [5] = experiment: Imiquimod-induced psoriasis relapse model (Example 20); type: in vivo; conditions: 5% imiquimod cream resumed on Day 23, vs first induction
Experimental: To the left auricle of each mouse, 62.5 mg of 5% imiquimod cream (Beselna Cream 5%) was applied once daily a total of seven times (Days 1 to 7) in accordance with Example 19 to induce imiquimod-induced psoriasis. Thereafter, the imiquimod treatment was interrupted, and imeglimin (40 mg/kg) was orally administered on alternate days for 2 weeks (Day 8 to 22) (IMG). Mice without administration of imeglimin were designated IMQ. On Day 23, the imiquimod treatment was resumed, and 62.5 mg of 5% imiquimod cream (Beselna Cream 5%) was applied once daily a total of […]. In parallel, imeglimin (40 mg/kg) was orally administered daily to IMG.

[6] = tested on: catecholamine transport of chromaffin granule membranes; experiment: Catecholamine (dopamine) transport in chromaffin granule membranes; type: biochemical, cattle; conditions: role: inhibitor; 1 μM reserpine
Experimental: as §1
A catecholamine transport inhibition experiment was carried out in the same manner as the ATP transport experiment except that the experiment used a measurement liquid containing 20 mM MOPS-tris (pH 7.0), 0.1 M sucrose, 0.1 M potassium chloride, 5 mM magnesium acetate, and about 5 μg of chromaffin granule membranes. To 0.5 ml of the measurement liquid, 2 mM ATP was added, and the resulting mixture was incubated at 30° C. for about 5 minutes, followed by addition of 3[H]-dopamine thereto to a final concentration of 10 μM. After further incubation at 30° C. for 15 minutes, 0.2 ml of the reaction liquid was subjected to suction filtration through a Millipore MCE membrane filter with a pore size of 0.45 μm, and the radioactivity on the filter was measured (N=3). The substrate, 3[H]-dopamine, was prepared by mixing 3,4-[RING-2,5,6-^3H]dihydroxyphenylethylamine (dopamine) (30 Ci/mmol) (manufactured by New England Nuclear) with dopamine hydrochloride (manufactured by LKT Laboratories) such that a final concentration of […] was achieved during the use.
as §2

`Nc1ncnc2c1ncn2[C@@H]1O[C@H](COP(=O)(O)OP(=O)(O)OP(=O)(O)O)[C@@H](O)[C@H]1O` [ATP, adenosine triphosphate] was tested, and the “quenching of acridine orange fluorescence” value (V-ATPase [1]) was 62% and the “quenching of oxonol-V fluorescence” value (V-ATPase [2]) was 40%.

For `CC(=N)S` [TAA, Thioacetamide], the “α-SMA-positive reaction throughout the mouse liver” value ([3]; TAA 50 mg/kg i.p. (FIG. 29)) was “increased markedly”, the α-SMA-positive area fraction ([3]; TAA group (disease inducer, 50 mg/kg i.p.), four measurements, normal control 0.14±0.01) was 2.79±0.33 and the “reaction of F4/80-positive macrophages” value (mouse liver; 9 weeks (disease inducer)) was “markedly increased”. For the same compound, the α-SMA-positive reaction (mouse liver; 9 weeks (disease inducer)) was “markedly increased”, the HE-stained liver tissue (mouse liver; 9 weeks, vs normal control) was “destruction of the lobular structure, hepatocyte ballooning, and inflammatory cell infiltration” and the fibrosis score (mouse liver; 9 weeks, vs normal control (FIG. 28)) was “markedly increased”.

With `CC(C)Cn1cnc2c(N)nc3ccccc3c21` [imiquimod] the auricle thickening (mouse auricle [4]) was “auricle thickening induced”, the “psoriatic symptoms in the epidermis” value (mouse auricle [4]) was “caused psoriatic symptoms in the epidermis, leading to partial desquamation” and the “ATP secretion from the keratinocytes” value (keratinocytes) was “markedly promoted”. For the same compound, the “psoriatic symptoms on resumed treatment” value (mouse auricle [5]) was “induced more rapidly and more strongly than at the first induction”.

For `COC(=O)[C@H]1[C@H]2C[C@@H]3c4[nH]c5cc(OC)ccc5c4CCN3C[C@H]2C[C@@H](OC(=O)c2cc(OC)c(OC)c(OC)c2)[C@@H]1OC` [reserpine], the ATP-dependent dopamine transport [6] was “almost completely blocked”.
